Test results taken from publication PMC6804295, “Design, Synthesis, and Biological Evaluation of Novel Thienopyrimidine Derivatives as PI3Kα Inhibitors” (Molecules, 2019).

Experiments:
[1] = tested on: MCF-7 (human breast cancer); test: MTT cytotoxicity assay, MCF-7 cells; format: cell-based; conditions: >50 = no inhibitory effect at 50 μM
Experimental: (§1) The cancer cell lines were cultured in minimum essential medium (MEM) supplement with 10% fetal bovine serum (FBS). Approximately, 4 × 10 ^3 cells, suspended in MEM medium, were plated onto each well of a 96-well plate and incubated in 5% CO2 at 37 °C for 24 h. The test compounds at the indicated final concentrations were added to the culture medium, and cell cultures continued for 72 h. Fresh MTT was added to each well at a terminal concentration of 5 µg/mL and incubated with cells at 37 °C for 4 h. The formazan crystals were dissolved in 100 µL of DMSO in each well, and the absorbency at 492 nm (for absorbance of MTT formazan) and 630 nm (for the reference wavelength) was measured with an enzyme linked immunosorbent assay (ELISA) reader (MR-96A Mindray Elisa Microplate Reader, Guangzhou, China). All compounds were tested three times in each of the cell lines. The results expressed as inhibition rates or IC50 was the averages of […] and calculated using the Bacus Laboratories Inc. Slide Scanner (Bliss) software (the Bacus Laboratories Inc. Slide Scanner (BLISS) system, Lombard, IL, USA).

[2] = tested on: PC-3 (human prostate cancer); test: MTT cytotoxicity assay, PC-3 cells; format: cell-based; conditions: >50 = no inhibitory effect at 50 μM
Experimental: as §1

A549 (human lung cancer) = test: MTT cytotoxicity assay, A549 cells; format: cell-based; conditions: 72 h, >50 = no inhibitory effect at 50 μM
Experimental: as §1

HepG2 (human hepatoma) = test: MTT cytotoxicity assay, HepG2 cells; format: cell-based; conditions: >50 = no inhibitory effect at 50 μM
Experimental: as §1

mTOR = mTOR (Homo sapiens, UniProt P42345); test: mTOR Kinase-Glo Luminescent Kinase Assay; format: biochemical; conditions: 10 µM ATP, 60 min
PI3Kα = PI3Kα (Homo sapiens, UniProt P42336); test: PI3Kα Kinase-Glo Luminescent Kinase Assay; format: biochemical; conditions: 1 µM ATP, 60 min
PI3Kα, sequence (P42336 whole entry): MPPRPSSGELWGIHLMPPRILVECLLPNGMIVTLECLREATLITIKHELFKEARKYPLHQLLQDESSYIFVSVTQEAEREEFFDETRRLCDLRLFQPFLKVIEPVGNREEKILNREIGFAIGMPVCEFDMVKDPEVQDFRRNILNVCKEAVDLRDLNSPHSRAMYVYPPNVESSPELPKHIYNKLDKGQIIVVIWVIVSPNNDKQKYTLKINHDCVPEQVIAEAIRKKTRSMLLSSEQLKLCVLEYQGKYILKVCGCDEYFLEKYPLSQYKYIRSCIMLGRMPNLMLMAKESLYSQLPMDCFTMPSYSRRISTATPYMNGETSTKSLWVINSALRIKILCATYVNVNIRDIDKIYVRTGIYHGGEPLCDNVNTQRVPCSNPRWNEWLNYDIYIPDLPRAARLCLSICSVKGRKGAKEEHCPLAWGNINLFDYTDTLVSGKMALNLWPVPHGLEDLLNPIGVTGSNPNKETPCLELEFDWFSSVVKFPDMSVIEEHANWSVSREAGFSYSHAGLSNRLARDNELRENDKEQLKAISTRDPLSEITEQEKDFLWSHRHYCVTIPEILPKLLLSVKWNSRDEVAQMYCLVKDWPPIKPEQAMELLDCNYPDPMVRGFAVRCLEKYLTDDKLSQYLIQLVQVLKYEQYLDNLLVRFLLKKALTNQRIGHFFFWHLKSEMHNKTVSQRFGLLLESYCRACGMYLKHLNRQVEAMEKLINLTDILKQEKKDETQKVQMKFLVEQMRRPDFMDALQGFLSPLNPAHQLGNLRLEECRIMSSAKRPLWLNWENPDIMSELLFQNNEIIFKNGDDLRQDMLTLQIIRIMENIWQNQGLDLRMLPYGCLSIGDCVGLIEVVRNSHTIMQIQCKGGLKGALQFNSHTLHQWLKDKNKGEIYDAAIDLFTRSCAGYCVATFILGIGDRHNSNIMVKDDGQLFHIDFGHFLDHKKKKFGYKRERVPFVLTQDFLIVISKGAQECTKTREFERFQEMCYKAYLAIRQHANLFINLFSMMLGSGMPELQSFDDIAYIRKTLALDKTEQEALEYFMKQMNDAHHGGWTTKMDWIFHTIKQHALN
PI3Kα, sequence (P27986 whole entry partner): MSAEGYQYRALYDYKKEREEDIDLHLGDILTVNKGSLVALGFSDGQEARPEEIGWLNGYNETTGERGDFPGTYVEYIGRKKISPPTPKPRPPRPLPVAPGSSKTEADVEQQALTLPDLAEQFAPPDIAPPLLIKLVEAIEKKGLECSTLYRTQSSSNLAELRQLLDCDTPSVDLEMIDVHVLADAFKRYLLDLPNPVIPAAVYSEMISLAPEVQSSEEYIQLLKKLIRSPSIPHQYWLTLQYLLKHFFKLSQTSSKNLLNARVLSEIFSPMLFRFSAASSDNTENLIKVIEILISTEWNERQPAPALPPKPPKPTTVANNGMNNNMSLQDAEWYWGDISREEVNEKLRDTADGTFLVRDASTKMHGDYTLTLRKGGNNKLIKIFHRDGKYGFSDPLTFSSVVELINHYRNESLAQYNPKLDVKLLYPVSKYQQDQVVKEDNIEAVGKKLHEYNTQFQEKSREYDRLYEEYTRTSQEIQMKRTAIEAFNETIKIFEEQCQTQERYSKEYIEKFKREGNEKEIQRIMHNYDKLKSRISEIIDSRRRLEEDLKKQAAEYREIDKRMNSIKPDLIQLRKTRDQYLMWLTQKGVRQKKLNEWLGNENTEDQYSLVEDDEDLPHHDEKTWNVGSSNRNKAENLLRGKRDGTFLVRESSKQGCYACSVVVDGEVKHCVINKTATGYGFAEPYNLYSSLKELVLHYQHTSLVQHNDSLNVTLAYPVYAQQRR

`Fc1ccc(C2=NN(c3nc(N4CCOCC4)c4sccc4n3)C(c3ccc(F)cc3)C2)cc1` (stereo not shown) [Compound 15c, 4-(2-(3,5-bis(4-fluorophenyl)-4,5-dihydro-1H-pyrazol-1-yl)thieno[3,2-d]pyrimidin-4-yl)Morpholine] gave an IC50 ([1]; Homo sapiens, MCF7, 72 h) of 37.1 ± 2.99 µM, an IC50 ([2]; Homo sapiens, PC-3, 72 h) of 25.3 ± 2.39 µM and an IC50 (A549 (human lung cancer)) of 39 ± 3.32 µM. The melting point was 254.7 to 255.4 °C and the IC50 (HepG2 (human hepatoma); Homo sapiens, HepG2, 72 h) was 18.9 ± 1.86 µM.
In the case of `CS(=O)(=O)N1CCN(Cc2cc3nc(-c4cccc5[nH]ncc45)nc(N4CCOCC4)c3s2)CC1` [GDC-0941, reference compound], the IC50 ([1]; Homo sapiens, MCF7, 72 h) is reported as 0.2 ± 0.08 µM, the IC50 ([2]; Homo sapiens, PC-3, 72 h) is reported as 4.35 ± 0.33 µM and the IC50 (A549 (human lung cancer)) is reported as 6.99 ± 0.21 µM. The IC50 (HepG2 (human hepatoma); Homo sapiens, HepG2, 72 h) was 0.07 ± 0.03 µM.
Work on `Fc1ccc(C2=NN(c3nc(N4CCOCC4)c4ccsc4n3)C(c3ccc(F)cc3)C2)cc1` (stereo not shown) [Compound 9c, 4-(2-(3,5-bis(4-fluorophenyl)-4,5-dihydro-1H-pyrazol-1-yl)thieno[2,3-d]pyrimidin-4-yl)Morpholine] yielded an IC50 ([1]; Homo sapiens, MCF7, 72 h) of 22.37 ± 0.17 µM, an IC50 ([2]; Homo sapiens, PC-3, 72 h) of 18.2 ± 1.55 µM and an IC50 (A549 (human lung cancer)) of 24.23 ± 0.15 µM. It also gave a melting point of 225 to 227 °C and an IC50 (HepG2 (human hepatoma); Homo sapiens, HepG2, 72 h) of 17.4 ± 0.98 µM.
In the case of `Clc1ccc(C2=NN(c3nc(N4CCOCC4)c4c5c(sc4n3)CCCC5)C(c3ccccc3)C2)cc1Cl` (stereo not shown) [Compound 21h, 4-(2-(3-(3,4-dichlorophenyl)-5-phenyl-4,5-dihydro-1H-pyrazol-1-yl)-5,6,7,8-tetrahydrobenzo[4,5]thieno[2,3-d]pyrimidin-4-yl)morpholine], the IC50 ([1]; Homo sapiens, MCF7, 72 h) is reported as > 50 µM, the IC50 ([2]; Homo sapiens, PC-3, 72 h) is reported as > 50 µM and the IC50 (A549 (human lung cancer)) is reported as 23.5 ± 0.82 µM. For the same molecule, the melting point was 293 to 294 °C and the IC50 (HepG2 (human hepatoma); Homo sapiens, HepG2, 72 h) was > 50 µM.
`COc1ccc(C2CC(c3ccc(F)cc3)=NN2c2nc(N3CCOCC3)c3c4c(sc3n2)CCCC4)cc1` (stereo not shown) [Compound 21d, 4-(2-(3-(4-fluorophenyl)-5-(4-methoxyphenyl)-4,5-dihydro-1H-pyrazol-1-yl)-5,6,7,8-tetrahydrobenzo[4,5]thieno[2,3-d]pyrimidin-4-yl)morpholine] gave an IC50 ([1]; Homo sapiens, MCF7, 72 h) of 29.5 ± 1.87 µM, an IC50 ([2]; Homo sapiens, PC-3, 72 h) of 25.3 ± 0.75 µM and an IC50 (A549 (human lung cancer)) of 17.8 ± 1.1 µM. For the same molecule, the melting point was 189 to 193 °C and the IC50 (HepG2 (human hepatoma); Homo sapiens, HepG2, 72 h) was 23.7 ± 0.11 µM.
Work on `COc1ccc(C2CC(c3ccc(Cl)c(Cl)c3)=NN2c2nc(N3CCOCC3)c3c4c(sc3n2)CCCC4)cc1` (stereo not shown) [Compound 21a, 4-(2-(3-(3,4-dichlorophenyl)-5-(4-methoxyphenyl)-4,5-dihydro-1H-pyrazol-1-yl)-5,6,7,8-tetrahydrobenzo[4,5]thieno[2,3-d]pyrimidin-4-yl)morpholine] yielded an IC50 ([2]; Homo sapiens, PC-3, 72 h) of 31.8 ± 0.95 µM, an IC50 (A549 (human lung cancer)) of 27.68 ± 0.1 µM and a melting point of 252 to 253 °C. The IC50 (HepG2 (human hepatoma); Homo sapiens, HepG2, 72 h) was 32.4 ± 1.84 µM.
With `Brc1ccc(C2=NN(c3nc(N4CCOCC4)c4c5c(sc4n3)CCCC5)C(c3ccccc3)C2)cc1` (stereo not shown) [Compound 21f, 4-(2-(3-(4-bromophenyl)-5-phenyl-4,5-dihydro-1H-pyrazol-1-yl)-5,6,7,8-tetrahydrobenzo[4,5]thieno[2,3-d]pyrimidin-4-yl)morpholine] the IC50 ([1]; Homo sapiens, MCF7, 72 h) was > 50 µM, the IC50 ([2]; Homo sapiens, PC-3, 72 h) was > 50 µM and the IC50 (A549 (human lung cancer)) was > 50 µM. For the same molecule, the melting point was 257 to 259 °C and the IC50 (HepG2 (human hepatoma); Homo sapiens, HepG2, 72 h) was > 50 µM.
With `c1ccc(C2=NN(c3nc(N4CCOCC4)c4c5c(sc4n3)CCCC5)C(c3ccccc3)C2)cc1` (stereo not shown) [Compound 21c, 4-(2-(3,5-diphenyl-4,5-dihydro-1H-pyrazol-1-yl)-5,6,7,8-tetrahydrobenzo[4,5]thiophene[2,3-d]pyramidin-4-yl)morpholine] the IC50 ([1]; Homo sapiens, MCF7, 72 h) was > 50 µM, the IC50 ([2]; Homo sapiens, PC-3, 72 h) was > 50 µM and the IC50 (A549 (human lung cancer)) was 42 ± 1.49 µM. The melting point was 212 to 213 °C and the IC50 (HepG2 (human hepatoma); Homo sapiens, HepG2, 72 h) was > 50 µM.
For `c1ccc(C2=NN(c3nc(N4CCOCC4)c4sccc4n3)[C@@H](c3ccccc3)C2)cc1` (stereo in doubt) [Compound 15a], the IC50 (mTOR) was > 50 µM, the IC50 ([1]; Homo sapiens, MCF7, 72 h) was 17 ± 1.68 µM and the IC50 ([2]; Homo sapiens, PC-3, 72 h) was 15.5 ± 1.21 µM. The IC50 (PI3Kα) was 25.7 ± 2.33 µM, the IC50 (A549 (human lung cancer)) was 16.9 ± 1.61 µM and the melting point was 131.2 to 132.5 °C. The IC50 (HepG2 (human hepatoma); Homo sapiens, HepG2, 72 h) was 13.1 ± 1.48 µM.
For `Clc1ccc(C2=NN(c3nc(N4CCOCC4)c4c5c(sc4n3)CCCC5)C(c3ccc(Br)cc3)C2)cc1Cl` (stereo not shown) [Compound 21g, 4-(2-(5-(4-bromophenyl)-3-(3,4-dichlorophenyl)-4,5-dihydro-1H-pyrazol-1-yl)-5,6,7,8-tetrahydrobenzo[4,5]thieno[2,3-d]pyrimidin-4-yl)morpholine], the IC50 ([1]; Homo sapiens, MCF7, 72 h) was > 50 µM, the IC50 ([2]; Homo sapiens, PC-3, 72 h) was > 50 µM and the IC50 (A549 (human lung cancer)) was > 50 µM. For the same molecule, the melting point was 231 to 234 °C and the IC50 (HepG2 (human hepatoma); Homo sapiens, HepG2, 72 h) was > 50 µM.
`Cc1ccc(C2CC(c3ccc(Br)cc3)=NN2c2nc(N3CCOCC3)c3c4c(sc3n2)CCCC4)cc1` (stereo not shown) [Compound 21b, 4-(2-(3-(4-bromophenyl)-5-(p-tolyl)-4,5-dihydro-1H-pyrazol-1-yl)-5,6,7,8-tetrahdrobenzo[4,5]thieno[2,3-d]pyrimidin-4-yl)morpholine] gave an IC50 ([1]; Homo sapiens, MCF7, 72 h) of 15.3 ± 0.83 µM, an IC50 ([2]; Homo sapiens, PC-3, 72 h) of 20.6 ± 0.63 µM and an IC50 (A549 (human lung cancer)) of 11.59 ± 0.11 µM. For the same molecule, the melting point was 243 to 244 °C and the IC50 (HepG2 (human hepatoma); Homo sapiens, HepG2, 72 h) was 12.4 ± 0.96 µM.
`c1ccc(C2=NN(c3nc(N4CCOCC4)c4ccsc4n3)[C@@H](c3ccccc3)C2)cc1` (stereo in doubt) [Compound 9a] showed an IC50 (mTOR) of 39.9 ± 7.6 µM, an IC50 ([1]; 72 h) of 14.7 ± 1.32 µM and an IC50 ([1]; Homo sapiens, MCF7, 72 h) of 9.8 ± 0.93 µM. The IC50 ([2]; 72 h) was 12.3 ± 0.96 µM, the IC50 ([2]; Homo sapiens, PC-3, 72 h) was 14.7 ± 1.32 µM and the IC50 (PI3Kα) was 9.47 ± 0.63 µM. It also gave an IC50 (A549 (human lung cancer)) of 11.3 ± 1.19 µM, a melting point of 202 to 205 °C and an IC50 (HepG2 (human hepatoma); 72 h) of 9.8 ± 0.93 µM. The IC50 (HepG2 (human hepatoma); Homo sapiens, HepG2, 72 h) was 12.3 ± 0.96 µM.
For `Fc1ccc(C2CC(c3ccc(Br)cc3)=NN2c2nc(N3CCOCC3)c3c4c(sc3n2)CCCC4)cc1` (stereo not shown) [Compound 21e, 4-(2-(3-(4-bromophenyl)-5-(4-fluorophenyl)-4,5-dihydro-1H-pyrazol-1-yl)-5,6,7,8-tetrahydrobenzo[4,5]thieno[2,3-d]pyrimidin-4-yl)morpholine], the IC50 ([1]; Homo sapiens, MCF7, 72 h) was > 50 µM, the IC50 ([2]; Homo sapiens, PC-3, 72 h) was > 50 µM and the IC50 (A549 (human lung cancer)) was > 50 µM. It also gave a melting point of 272 to 273 °C and an IC50 (HepG2 (human hepatoma); Homo sapiens, HepG2, 72 h) of 38.7 ± 1.72 µM.
